Measurements reported in patent EP4768499A1, “MACROCYCLIC PEPTIDE COMPOUND HAVING CELL MEMBRANE PERMEABILITY AND METABOLIC STABILITY, AND LIBRARY CONTAINING SAME” (Chugai Seiyaku Kabushiki Kaisha, priority 2023, dated 2025).
Starred links: 1 amine or outer side, 2 acyl side, 3 side chain; linkers in the order of their positions; H or OH if unused. Positions of bridges follow the written chain, without caps; N, C: chain ends. Non-standard residues stand in square brackets, D forms with d. Residues, ends and D or L forms follow the SMILES beside them. *: point of attachment. NMeF = CN[C@@H](Cc1ccccc1)C(=O)O; NMeI = CC[C@H](C)[C@H](NC)C(=O)O; NMeT = CN[C@H](C(=O)O)[C@@H](C)O; hPhe = N[C@@H](CCc1ccccc1)C(=O)O; NMeβAla = CN(CCC(=O)[*:2])[*:1]; NMeD = CN[C@@H](CC(=O)O)C(=O)O; NMeL = CN[C@@H](CC(C)C)C(=O)O; dNMeV = CN[C@@H](C(=O)O)C(C)C; NMeV = CN[C@H](C(=O)O)C(C)C; NMeA = CN[C@@H](C)C(=O)O; Piperidide = C1CCN(*)CC1; Abu = CC[C@H](N)C(=O)O; NBuGly = CCCCNCC(=O)O; βAla = NCCC(=O)O; Sar = CNCC(=O)O; tBu = CC(C)(C)*

Tests used:
[1] = Membrane permeability test using Caco-2 cells with preincubation; format: in vitro ADME; details: Caco-2; preincubation 20 to 24 hours; Apical FaSSIF/HBSS pH 6.0, Basal HBSS 4% BSA pH 7.4; 180 minutes; read-out: Caco2 Papp
[2] = system: Caco-2 cells; assay: as above; format: in vitro ADME; details: Caco-2 cells, preincubation 20 to 24 hours; apical FaSSIF/HBSS 1% DMSO pH 6.0, basal HBSS 4% BSA pH 7.4; basal sample at 180 minutes
[3] = Metabolic stability test: liver microsomal stability assay; format: in vitro ADME, mouse; details: mouse liver microsomes 0.5 mg protein/mL, compound 1 µM; for microsomal CLint at 1 µM: male, pH 7.4, presence of NADPH, read-out: Mouse Hepatic Microsome CLh,int NADPH(+); for Mouse Hepatic Microsome CLh,int NADPH(-): absence of NADPH

Row | SMILES | Papp A→B [1] [×10⁻⁶ cm/s] | Caco2 Papp (10^-6 cm/sec) [2] | microsomal CLint at 1 µM [3] [µL/min/mg] | Mouse Hepatic Microsome CLh,int NADPH(-) [3] [µL/min/mg Protein]
1 | CC[C@H](C)[C@@H]1NC(=O)[C@H](Cc2ccccc2)N(C)C(=O)[C@H](CC(C)C)N(C)C(=O)[C@H](CC(C)C)NC(=O)[C@H](C)N(C)C(=O)C[C@@H](C(=O)N2CCCCC2)N(C)C(=O)[C@H](C)N(C)C(=O)[C@H](CC(C)C)NC(=O)[C@H](CC(C)C)N(C)C(=O)CNC(=O)[C@H]([C@@H](C)CC)N(C)C(=O)[C@H](Cc2ccccc2)N(C)C(=O)[C@H](C)NC1=O [pd152] ([NMeA]L[NMeL][NMeF]IA[NMeF][NMeI]G[NMeL]L[NMeA][NMeD]-Piperidide; lactam N-13) | 1.02 | 1.02 10^-6 cm/sec | 40.2 | 32.5
2 | CC[C@H](C)[C@@H]1NC(=O)[C@H]([C@@H](C)CC)N(C)C(=O)[C@@H](C)NC(=O)C[C@@H](C(=O)N2CCCCC2)N(C)C(=O)[C@H](Cc2ccccc2)N(C)C(=O)[C@H](C(C)C)NC(=O)[C@H](C)N(C)C(=O)[C@H](CC(C)C)N(C)C(=O)[C@H](C)NC(=O)CN(C)C(=O)[C@H](CC(C)C)N(C)C(=O)[C@H](C)N(C)C(=O)[C@H](Cc2ccccc2)N(C)C1=O [pd153] ([dA][NMeI]I[NMeF][NMeA][NMeL][Sar]A[NMeL][NMeA]V[NMeF][NMeD]-Piperidide; lactam N-13) | 0.2 | 0.20 10^-6 cm/sec | 15.1 | 26.0
3 | CCCCN1CC(=O)N(C)[C@@H](Cc2ccccc2)C(=O)N[C@@H](COC(C)(C)C)C(=O)N(C)[C@@H](CC(C)C)C(=O)NCCC(=O)N(C)[C@@H](C)C(=O)N(C)[C@@H]([C@@H](C)CC)C(=O)N[C@@H](CC(C)C)C(=O)N(C)[C@H](C(=O)N2CCCCC2)CC(=O)N(C)CCC(=O)N(C)[C@@H](CC(C)C)C(=O)N[C@@H]([C@@H](C)CC)C(=O)N(C)[C@@H](Cc2ccccc2)C1=O [pd154] ([NMeβAla][NMeL]I[NMeF][NBuGly][NMeF]S(tBu)[NMeL][βAla][NMeA][NMeI]L[NMeD]-Piperidide; lactam N-13) | 0.82 | 0.82 10^-6 cm/sec | 41.7 | 34.3
4 | CC[C@H](C)[C@H]1C(=O)NCC(=O)N(C)[C@@H](CC(C)C)C(=O)N(C)[C@@H](C(C)C)C(=O)N(C)[C@@H](C)C(=O)N(C)[C@H](C(=O)N2CCCCC2)CC(=O)N(C)[C@@H](C)C(=O)N[C@@H](CC(C)C)C(=O)N(C)[C@@H](CC(C)C)C(=O)N[C@@H](COC(C)(C)C)C(=O)N(C)[C@@H](Cc2ccccc2)C(=O)N[C@@H](C)C(=O)N(C)[C@@H](Cc2ccccc2)C(=O)N1C [pd155] ([NMeA]L[NMeL]S(tBu)[NMeF]A[NMeF][NMeI]G[NMeL][NMeV][NMeA][NMeD]-Piperidide; lactam N-13) | 0.87 | 0.87 10^-6 cm/sec | 48.8 | 37.2
5 | CC[C@H](C)[C@@H]1NC(=O)[C@H](CC(C)C)N(C)C(=O)CN(C)C(=O)C[C@@H](C(=O)N2CCCCC2)N(C)C(=O)CNC(=O)[C@H](C)N(C)C(=O)[C@H](C(C)C)N(C)C(=O)[C@H](C)N(C)C(=O)[C@H](Cc2ccccc2)N(C)C(=O)[C@H](CC(C)C)NC(=O)[C@H](Cc2ccccc2)N(C)C(=O)[C@H](C(C)C)NC(=O)[C@H](CC(C)C)N(C)C1=O [pd156] ([Sar][NMeL]I[NMeL]V[NMeF]L[NMeF][NMeA][NMeV][NMeA]G[NMeD]-Piperidide; lactam N-13) | 0.39 | 0.39 10^-6 cm/sec | 34.1 | 23.7
6 | CC(C)C[C@@H]1NC(=O)[C@H](Cc2ccccc2)N(C)C(=O)[C@H](C)N(C)C(=O)[C@H](CC(C)C)N(C)C(=O)CN(C)C(=O)[C@H](C(C)C)N(C)C(=O)[C@H](CC(C)C)N(C)C(=O)[C@H](C(C)C)N(C)C(=O)[C@H](C(C)C)NC(=O)[C@H](CC(C)C)N(C)C(=O)[C@@H](C(C)C)NC(=O)C[C@@H](C(=O)N2CCCCC2)N(C)C(=O)[C@H](C)N(C)C1=O [pd157] ([dV][NMeL]V[NMeV][NMeL][NMeV][Sar][NMeL][NMeA][NMeF]L[NMeA][NMeD]-Piperidide; lactam N-13) | 1.42 | 1.42 10^-6 cm/sec | 31.7 | 24.9
7 | CC(C)C[C@@H]1NC(=O)[C@H](CC(C)C)N(C)C(=O)[C@H]([C@@H](C)O)NC(=O)[C@H](C(C)C)N(C)C(=O)[C@H](Cc2ccccc2)N(C)C(=O)[C@@H](C(C)C)NC(=O)C[C@@H](C(=O)N2CCCCC2)N(C)C(=O)[C@H](C)N(C)C(=O)[C@H](Cc2ccccc2)N(C)C(=O)[C@H](C)NC(=O)[C@H](COC(C)(C)C)NC(=O)[C@H](CC(C)C)N(C)C(=O)CN(C)C1=O [pd158] ([dV][NMeF][NMeV]T[NMeL]L[Sar][NMeL]S(tBu)A[NMeF][NMeA][NMeD]-Piperidide; lactam N-13) | 0.44 | 0.44 10^-6 cm/sec | 19.3 | 13.7
8 | CCCCN1CC(=O)N(C)[C@@H](CC(C)C)C(=O)N[C@@H]([C@@H](C)O)C(=O)N(C)[C@@H](CC(C)C)C(=O)N2CCC[C@H]2C(=O)N[C@@H](CCc2ccccc2)C(=O)N[C@@H]([C@@H](C)CC)C(=O)N(C)[C@H](C(=O)N2CCCCC2)CC(=O)N(C)[C@@H](CC(C)C)C(=O)N[C@@H](COC(C)(C)C)C(=O)N(C)[C@@H](C(C)C)C(=O)N[C@@H]([C@@H](C)CC)C(=O)N2CCC[C@H]2C1=O [pd159] ([NMeL]S(tBu)[NMeV]IP[NBuGly][NMeL]T[NMeL]P[hPhe]I[NMeD]-Piperidide; lactam N-13) | 0.64 | 0.64 10^-6 cm/sec | 49.5 | 42.0
9 | CC[C@H](C)[C@@H]1NC(=O)CN(C)C(=O)C[C@@H](C(=O)N2CCCCC2)N(C)C(=O)[C@H](CC(C)C)NC(=O)[C@H](CC(C)C)N(C)C(=O)[C@H]([C@@H](C)O)NC(=O)[C@H](Cc2ccccc2)N(C)C(=O)[C@H](CC(C)C)NC(=O)[C@H](C(C)C)N(C)C(=O)[C@H](C)N(C)C(=O)[C@H](CC(C)C)N(C)C(=O)[C@H](CCc2ccccc2)NC(=O)[C@H](CC(C)C)N(C)C1=O [pd160] ([Sar]I[NMeL][hPhe][NMeL][NMeA][NMeV]L[NMeF]T[NMeL]L[NMeD]-Piperidide; lactam N-13) | 0.06 | 0.06 10^-6 cm/sec | 21.5 | 22.3
10 | CC(C)C[C@@H]1NC(=O)[C@H](C(C)C)N(C)C(=O)[C@H](Cc2ccccc2)N(C)C(=O)[C@H](COC(C)(C)C)NC(=O)[C@H](CC(C)C)N(C)C(=O)[C@H](C)N(C)C(=O)[C@H]([C@@H](C)O)NC(=O)[C@H](CC(C)C)N(C)C(=O)[C@H](C(C)C)N(C)C(=O)[C@H](CCc2ccccc2)NC(=O)[C@H](CC(C)C)N(C)C(=O)[C@@H](C(C)C)N(C)C(=O)C[C@@H](C(=O)N2CCCCC2)N(C)C1=O [pd161] ([dNMeV][NMeL][hPhe][NMeV][NMeL]T[NMeA][NMeL]S(tBu)[NMeF][NMeV]L[NMeD]-Piperidide; lactam N-13) | 0.09 | 0.09 10^-6 cm/sec | 35.3 | 37.0
11 | CC[C@@H]1NC(=O)[C@H](CC(C)C)N(C)C(=O)[C@H]([C@@H](C)O)NC(=O)[C@H](C(C)C)N(C)C(=O)[C@H](Cc2ccccc2)N(C)C(=O)[C@@H](C(C)C)NC(=O)C[C@@H](C(=O)N2CCCCC2)N(C)C(=O)CN(C)C(=O)[C@H](Cc2ccccc2)N(C)C(=O)[C@H](C)N(C)C(=O)[C@H](COC(C)(C)C)NC(=O)[C@H](CC(C)C)N(C)C(=O)CN(C)C1=O [pd162] ([dV][NMeF][NMeV]T[NMeL][Abu][Sar][NMeL]S(tBu)[NMeA][NMeF][Sar][NMeD]-Piperidide; lactam N-13) | 0.51 | 0.51 10^-6 cm/sec | 12.5 | 16.3
12 | CC[C@@H]1NC(=O)[C@H](Cc2ccccc2)N(C)C(=O)[C@H](CC(C)C)N(C)C(=O)[C@H](CC(C)C)NC(=O)[C@H](C)N(C)C(=O)C[C@@H](C(=O)N2CCCCC2)N(C)C(=O)[C@H](CC(C)C)N(C)C(=O)[C@H]([C@@H](C)CC)NC(=O)[C@H](Cc2ccccc2)N(C)C(=O)[C@H]([C@@H](C)O)N(C)C(=O)[C@H]([C@@H](C)CC)N(C)C(=O)[C@H](CC(C)C)NC(=O)CN(C)C1=O [pd163] ([NMeA]L[NMeL][NMeF][Abu][Sar]L[NMeI][NMeT][NMeF]I[NMeL][NMeD]-Piperidide; lactam N-13) | 0.04 | 0.04 10^-6 cm/sec | 28.2 | 36.5
13 | CC[C@H](C)[C@@H]1NC(=O)[C@@H]2CCCN2C(=O)[C@H](C(C)C)N(C)C(=O)[C@H](CC(C)C)N(C)C(=O)C[C@@H](C(=O)N2CCCCC2)N(C)C(=O)[C@H](CC(C)C)NC(=O)[C@H](CC(C)C)N(C)C(=O)[C@H](C)NC(=O)[C@@H]2CCCN2C(=O)[C@H]([C@@H](C)O)NC(=O)[C@H](CC(C)C)N(C)C(=O)CN(C)C(=O)[C@H](Cc2ccccc2)N(C)C1=O [pd164] ([NMeL][NMeV]PI[NMeF][Sar][NMeL]TPA[NMeL]L[NMeD]-Piperidide; lactam N-13) | 0.06 | 0.06 10^-6 cm/sec | 14.6 | 10.0
